Measurements as given in US20260028354A1, “TETRAHYDRONAPHTHALENE DERIVATIVES AS ESTROGEN RECEPTOR DEGRADERS” (REGENT OF THE UNIVERSITY OF MICHIGAN, priority 2022, published 2026).
Read-outs that look alike come from different tables or passages of the source.

Legend:
[1] = biological target: ER (Homo sapiens (Human), UniProt P03372); assay: In-cell western blot analysis of ER for "B" compounds; format: cell-based; settings: 16 hours, read-out: ICW DC50
In short: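 In-cell western: fixed cells stained with primary antibodies (2 h, RT), then anti-rabbit-680 and anti-mouse-800 secondaries (1:1000, 1 h, RT), imaged on a LI-COR plate reader. Relative ER level in treated wells expressed against untreated and DMSO-treated wells set as 100%.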

[2] = Cell growth assay (WST-8) for "B" compounds; format: cell-based; settings: T47D, read-out: Cell growth Inhibition in T47D cell line IC50
In short: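 Cells seeded at 1500/well overnight, then exposed to compounds for 4 days. 10% WST-8 added for 2.5 h at 37 °C and absorbance read at 450 nm. Growth given as absorbance relative to vehicle control, from three repeats.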

ER, sequence (P03372 whole entry): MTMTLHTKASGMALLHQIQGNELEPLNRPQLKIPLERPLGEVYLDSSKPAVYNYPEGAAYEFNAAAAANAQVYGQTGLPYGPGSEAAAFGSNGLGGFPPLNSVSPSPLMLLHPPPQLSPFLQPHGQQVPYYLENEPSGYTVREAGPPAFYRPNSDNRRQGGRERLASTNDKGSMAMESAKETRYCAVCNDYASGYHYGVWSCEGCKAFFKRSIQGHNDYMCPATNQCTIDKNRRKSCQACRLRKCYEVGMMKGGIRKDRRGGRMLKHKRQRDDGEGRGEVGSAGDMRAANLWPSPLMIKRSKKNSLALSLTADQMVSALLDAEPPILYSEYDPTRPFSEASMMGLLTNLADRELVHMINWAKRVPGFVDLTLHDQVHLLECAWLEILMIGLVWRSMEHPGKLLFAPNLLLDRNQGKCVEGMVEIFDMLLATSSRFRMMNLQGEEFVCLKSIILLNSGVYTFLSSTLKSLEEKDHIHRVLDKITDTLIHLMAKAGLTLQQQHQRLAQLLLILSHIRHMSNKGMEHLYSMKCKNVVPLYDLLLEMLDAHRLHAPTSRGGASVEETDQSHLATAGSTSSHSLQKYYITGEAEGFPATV

| DC50 [1] [nM] | Compound | IC50 ([2]; T47D cell line) [nM] | IC50 [2] [nM] |
| --- | --- | --- | --- |
| > 100 | O=C1CC[C@H](NC(=O)c2ccc3c(c2)OC[C@@H]2CN(CC4CCN(c5ccc([C@@H]6c7ccc(O)cc7CC[C@@H]6c6ccccc6)cc5)CC4)CCN32)C(=O)N1 [Compound B257, (S)-N-((S)-2,6-dioxopiperidin-3-yl)-3-((1-(4-((1R,2S)-6-hydroxy-2-phenyl-1,2,3,4-tetrahydronaphthalen-1-yl)phenyl)piperidin-4-yl)methyl)-1,2,3,4,4a,5-hexahydrobenzo[b]pyrazino[1,2-d][1,4]oxazine-8-carboxamide] | 1 to 10 |  |
| > 100 | O=C1CCC(N2Cc3c(ccc4c3OC[C@@H]3CN(CC5CCN(c6ccc([C@@H]7c8ccc(O)cc8CC[C@@H]7c7ccccc7)cc6)CC5)CCN43)C2=O)C(=O)N1 (stereo partly drawn) [Compound B306, 3-((S)-7-((1-(4-((1R,2S)-6-hydroxy-2-phenyl-1,2,3,4-tetrahydronaphthalen-1-yl)phenyl)piperidin-4-yl)methyl)-1-oxo-1,3,5,5a,6,7,8,9-octahydro-2H-pyrazino[1′,2′:4,5][1,4]oxazino[2,3-e]isoindol-2-yl)piperidine-2,6-dione] | < 1 |  |
| > 100 | O=C1CCC(N2Cc3cc4c(cc3C2=O)OC[C@@H]2C[C@H](NCC3CCN(c5ccc([C@@H]6c7ccc(O)cc7CC[C@@H]6c6ccccc6)cc5)CC3)CN42)C(=O)N1 (stereo partly drawn) [Compound B307, 3-((2S,3aS)-2-(((1-(4-((1R,2S)-6-hydroxy-2-phenyl-1,2,3,4-tetrahydronaphthalen-1-yl)phenyl)piperidin-4-yl)methyl)amino)-7-oxo-2,3,3a,4,7,9-hexahydro-1H,8H-pyrrolo[1′,2′:4,5][1,4]oxazino[2,3-f]isoindol-8-yl)piperidine-2,6-dione] | 1 to 10 |  |
| > 100 | CN(CC1CCN(c2ccc([C@@H]3c4ccc(O)cc4CC[C@@H]3c3ccccc3)cc2)CC1)[C@H]1C[C@H]2COc3cc4c(cc3N2C1)CN(C1CCC(=O)NC1=O)C4=O (stereo partly drawn) [Compound B310, 3-((2S,3aS)-2-(((1-(4-((1R,2S)-6-hydroxy-2-phenyl-1,2,3,4-tetrahydronaphthalen-1-yl)phenyl)piperidin-4-yl)methyl)(methyl)amino)-7-oxo-2,3,3a,4,7,9-hexahydro-1H,8H-pyrrolo[1′,2′:4,5][1,4]oxazino[2,3-f]isoindol-8-yl)piperidine-2,6-dione] | < 1 |  |
| > 100 | CCN(CC1CCN(c2ccc([C@@H]3c4ccc(O)cc4CC[C@@H]3c3ccccc3)cc2)CC1)[C@H]1C[C@H]2COc3cc4c(cc3N2C1)CN(C1CCC(=O)NC1=O)C4=O (stereo partly drawn) [Compound B311, 3-((2S,3aS)-2-(ethyl((1-(4-((1R,2S)-6-hydroxy-2-phenyl-1,2,3,4-tetrahydronaphthalen-1-yl)phenyl)piperidin-4-yl)methyl)amino)-7-oxo-2,3,3a,4,7,9-hexahydro-1H,8H-pyrrolo[1′,2′:4,5][1,4]oxazino[2,3-f]isoindol-8-yl)piperidine-2,6-dione] | < 1 |  |
| > 100 | CN(C(=O)c1ccc2c(c1)OC[C@@H]1CN(CC3CC4(CCN(c5ccc([C@@H]6c7ccc(O)cc7CC[C@@H]6c6ccccc6)cc5)CC4)C3)CCN21)C1CCC(=O)NC1=O (stereo partly drawn) [Compound B312, (4aS)-N-(2,6-dioxopiperidin-3-yl)-3-((7-(4-((1R,2S)-6-hydroxy-2-phenyl-1,2,3,4-tetrahydronaphthalen-1-yl)phenyl)-7-azaspiro[3.5]nonan-2-yl)methyl)-N-methyl-1,2,3,4,4a,5-hexahydrobenzo[b]pyrazino[1,2-d][1,4]oxazine-8-carboxamide] | < 1 |  |
| > 100 | O=C1CC[C@H](NC(=O)c2ccc(N3CCN(CC4CCN(c5ccc([C@@H]6c7ccc(O)cc7CC[C@@H]6c6ccccc6)cc5)CC4)CC3)cc2)C(=O)N1 [Compound B315, N-((S)-2,6-dioxopiperidin-3-yl)-4-(4-((1-(4-((1R,2S)-6-hydroxy-2-phenyl-1,2,3,4-tetrahydronaphthalen-1-yl)phenyl)piperidin-4-yl)methyl)piperazin-1-yl)benzamide] | 1 to 10 |  |
| 10 to 100 | O=C1CC[C@H](NC(=O)c2ccc(N3CCN(CC4CCN(c5ccc([C@@H]6c7ccc(O)cc7CC[C@@H]6c6ccccc6)cc5)CC4)CC3)cn2)C(=O)N1 [Compound B316, N-((S)-2,6-dioxopiperidin-3-yl)-5-(4-((1-(4-((1R,2S)-6-hydroxy-2-phenyl-1,2,3,4-tetrahydronaphthalen-1-yl)phenyl)piperidin-4-yl)methyl)piperazin-1-yl)picolinamide] | 1 to 10 |  |
| > 100 | O=C1CC[C@H](NC(=O)c2ccc(N3CCN(CC4CCN(c5ccc([C@@H]6c7ccc(O)cc7CC[C@@H]6c6ccccc6)cc5)CC4)CC3)cc2F)C(=O)N1 [Compound B317, N-((S)-2,6-dioxopiperidin-3-yl)-2-fluoro-4-(4-((1-(4-((1R,2S)-6-hydroxy-2-phenyl-1,2,3,4-tetrahydronaphthalen-1-yl)phenyl)piperidin-4-yl)methyl)piperazin-1-yl)benzamide] | 1 to 10 |  |
| 10 to 100 | O=C1CCC(N2C(=O)c3cc4c(cc3C2=O)CN(CC(=O)N2CCOC3(CCN(c5ccc([C@@H]6c7ccc(O)cc7CC[C@@H]6c6ccccc6)cc5)CC3)C2)C4)C(=O)N1 (stereo partly drawn) [Compound B325, 2-(2,6-dioxopiperidin-3-yl)-6-(2-(9-(4-((1R,2S)-6-hydroxy-2-phenyl-1,2,3,4-tetrahydronaphthalen-1-yl)phenyl)-1-oxa-4,9-diazaspiro[5.5]undecan-4-yl)-2-oxoethyl)-6,7-dihydropyrrolo[3,4-f]isoindole-1,3(2H,5H)-dione] | 1 to 10 |  |
| > 100 | CN(C(=O)c1ccc2c(c1)OC[C@H]1CN(CC3CC4(CCN(c5ccc([C@@H]6c7ccc(O)cc7CC[C@@H]6c6ccccc6)cc5)CC4)C3)CCN21)C1CCC(=O)NC1=O (stereo partly drawn) [Compound B326, (4aR)-N-(2,6-dioxopiperidin-3-yl)-3-((7-(4-((1R,2S)-6-hydroxy-2-phenyl-1,2,3,4-tetrahydronaphthalen-1-yl)phenyl)-7-azaspiro[3.5]nonan-2-yl)methyl)-N-methyl-1,2,3,4,4a,5-hexahydrobenzo[b]pyrazino[1,2-d][1,4]oxazine-8-carboxamide] | 1 to 10 |  |

| Compound | DC50 [1] [nM] | IC50 ([2]; T47D cell line) [nM] | IC50 [2] [nM] |
| --- | --- | --- | --- |
| O=C1CCC(N2Cc3c(ccc4c3OCC43CCN(CC4CCN(c5ccc([C@@H]6c7ccc(O)cc7CC[C@@H]6c6ccccc6)cc5)CC4)CC3)C2=O)C(=O)N1 (stereo partly drawn) [Compound B258, 3-(1′-((1-(4-((1R,2S)-6-hydroxy-2-phenyl-1,2,3,4-tetrahydronaphthalen-1-yl)phenyl)piperidin-4-yl)methyl)-6-oxo-6,8-dihydro-2H,7H-spiro[furo[2,3-e]isoindole-3,4′-piperidin]-7-yl)piperidine-2,6-dione] | 10 to 100 |  | < 1 |
| O=C1CCC(N2Cc3c(ccc4c3OCC43CCN(CC4CC5(CCN(c6ccc([C@@H]7c8ccc(O)cc8CC[C@@H]7c7ccccc7)cc6)CC5)C4)CC3)C2=O)C(=O)N1 (stereo partly drawn) [Compound B313, 3-(1′-((7-(4-((1R,2S)-6-hydroxy-2-phenyl-1,2,3,4-tetrahydronaphthalen-1-yl)phenyl)-7-azaspiro[3.5]nonan-2-yl)methyl)-6-oxo-6,8-dihydro-2H,7H-spiro[furo[2,3-e]isoindole-3,4′-piperidin]-7-yl)piperidine-2,6-dione] | 10 to 100 |  | < 1 |
